# Patent US20260034113A1, “THIADIAZOLONE DERIVATIVES, COMPOSITIONS AND USES THEREOF” (Danatlas Pharmaceuticals Co., Ltd., priority 2023, published 2026)
# Like-named read-outs stand apart in the source and are kept apart here.
# Molecular target: PolQ (1-899) (Homo sapiens (Human), UniProt O75417)
# Assay: PolQ ATPase assay (ADP-Glo)
# Format: biochemical
# Method: The ability of the compounds of the present disclosure to inhibit ATPase activity of PolQ (1-899) was determined using the assay described below.
# PolQ ATPase activity was determined by ADP-Glo assay. 10-point dilution series of compounds were used in a 384 well format for the inhibition assays. PolQ (1-899) (1 nM) in assay buffer (20 mM Tris HCl (pH 8.0), 80 mM KCl, 10 mM MgCl2, 1 mM DTT, 0.01% BSA, 0.01% Tween, 5% glycerol) was transferred to the test wells (20 uL), except the low control wells (20 μL of assay buffer was added to the low control wells). The plate was then incubated at room temperature for 30 min. An equal volume (20 μL) of 100 μM ATP, 150 nM ssDNA containing 50 thymine bases in assay buffer was added to all the test wells. The plates were covered and left to incubate for 60 min. at room temperature before the addition of the ADP Glo detection reagents. After 60 min. incubation, transfer 5 μL reaction mix to another 384-well plate and add 5 μL ADP Glo and plates incubated for 60 min. before addition of 10 μL kinase detection reagent. After the addition of the kinase detection reagent, the plates were covered and incubated for 60 min. and read luminescence on Envision
# Percent inhibition was calculated as follows:
# [formula] • where “Max” is the high control (DMSO) and “Min” is the no enzyme control.
# IC50 values were calculated using a four-parameter logistic curve fit using the following formula: […]
# IC50 values were determined by fitting the data to the standard 4 parameters with Hill Slope using GraphPad Prism software.
# [1] = inhibition of ATPase activity of PolQ (1-899), 1 nM enzyme, 100 μM ATP, 150 nM ssDNA, ADP-Glo
# PolQ (1-899), sequence (O75417 1-899): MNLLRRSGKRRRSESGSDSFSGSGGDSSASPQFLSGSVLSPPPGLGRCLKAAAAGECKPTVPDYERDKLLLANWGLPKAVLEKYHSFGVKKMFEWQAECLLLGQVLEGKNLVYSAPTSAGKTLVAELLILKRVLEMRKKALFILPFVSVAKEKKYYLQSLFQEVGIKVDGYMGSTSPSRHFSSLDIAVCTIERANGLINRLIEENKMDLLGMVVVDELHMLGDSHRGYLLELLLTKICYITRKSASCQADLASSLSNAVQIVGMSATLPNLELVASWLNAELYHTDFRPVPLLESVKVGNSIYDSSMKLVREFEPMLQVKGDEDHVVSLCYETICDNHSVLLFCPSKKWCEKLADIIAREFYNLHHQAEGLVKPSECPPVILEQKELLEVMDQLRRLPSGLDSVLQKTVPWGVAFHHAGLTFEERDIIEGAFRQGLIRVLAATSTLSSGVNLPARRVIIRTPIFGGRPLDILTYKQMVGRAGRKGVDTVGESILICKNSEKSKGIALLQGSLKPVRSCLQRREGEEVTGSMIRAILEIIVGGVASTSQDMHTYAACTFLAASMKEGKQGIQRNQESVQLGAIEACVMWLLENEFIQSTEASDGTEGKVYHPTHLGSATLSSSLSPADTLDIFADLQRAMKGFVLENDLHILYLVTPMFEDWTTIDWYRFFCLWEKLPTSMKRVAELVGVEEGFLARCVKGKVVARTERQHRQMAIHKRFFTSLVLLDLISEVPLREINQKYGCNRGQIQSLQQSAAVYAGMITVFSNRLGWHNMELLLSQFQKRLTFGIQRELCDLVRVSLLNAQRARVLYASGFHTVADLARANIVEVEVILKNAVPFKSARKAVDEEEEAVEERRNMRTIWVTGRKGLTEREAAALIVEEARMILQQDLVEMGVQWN
Structure (SMILES),IC50 [1] [nM],IC50 [nM]
"COCCCCn1nc(NC(=O)c2cnc(C)cc2-c2c(OC)ccc(Cl)c2F)sc1=O [Example 5, 4-(3-Chloro-2-fluoro-6-methoxyphenyl)-N-(4-(4-methoxybutyl)-5-oxo-4,5-dihydro-1,3,4-thiadiazol-2-yl)-6-methylnicotinamide]",< 10,
"COc1ccc(C(F)(F)F)c(F)c1-c1cc(C)ncc1C(=O)Nc1nn(CCCCO)c(=O)s1 [Example 27, 4-(2-Fluoro-6-methoxy-3-(trifluoromethyl)phenyl)-N-(4-(4-hydroxybutyl)-5-oxo-4,5-dihydro-1,3,4-thiadiazol-2-yl)-6-methylnicotinamide]",< 10,
"COc1ccc(Cl)c(F)c1-c1cnccc1C(=O)Nc1nn(CCCCO)c(=O)s1 [Example 22, 3-(3-Chloro-2-fluoro-6-methoxyphenyl)-N-(4-(4-hydroxybutyl)-5-oxo-4,5-dihydro-1,3,4-thiadiazol-2-yl)isonicotinamide]",< 10,
"COc1ccc(Cl)c(F)c1-c1cc(C)ncc1C(=O)Nc1nn(CCCC#N)c(=O)s1 [Example 12, 4-(3-Chloro-2-fluoro-6-methoxyphenyl)-N-(4-(3-cyanopropyl)-5-oxo-4,5-dihydro-1,3,4-thiadiazol-2-yl)-6-methylnicotinamide]",< 10,
"COc1ccc(Cl)c(F)c1-c1cc(C)ncc1C(=O)Nc1nn(CC(=O)N2CC[C@H](N(C)C)C2)c(=O)s1 [Example 10, 4-(3-Chloro-2-fluoro-6-methoxyphenyl)-N-(4-(2-((S)-3-(dimethylamino)pyrrolidin-1-yl)-2-oxoethyl)-5-oxo-4,5-dihydro-1,3,4-thiadiazol-2-yl)-6-methylnicotinamide]",,10 to 100
"COc1ccc(Cl)c(F)c1-c1cc(C)ncc1C(=O)Nc1nn(CCC#N)c(=O)s1 [Example 11, 4-(3-Chloro-2-fluoro-6-methoxyphenyl)-N-(4-(2-cyanoethyl)-5-oxo-4,5-dihydro-1,3,4-thiadiazol-2-yl)-6-methylnicotinamide]",< 10,
"COc1ccccc1-n1cncc1C(=O)Nc1nn(CCCCO)c(=O)s1 [Example 23, N-(4-(4-Hydroxybutyl)-5-oxo-4,5-dihydro-1,3,4-thiadiazol-2-yl)-1-(2-methoxyphenyl)-1H-imidazole-5-carboxamide]",> 500,
"COc1cnc(Cl)cc1-c1cc(C)ncc1C(=O)Nc1nn(CCCCO)c(=O)s1 [Example 29, 2′-Chloro-N-(4-(4-hydroxybutyl)-5-oxo-4,5-dihydro-1,3,4-thiadiazol-2-yl)-5′-methoxy-6-methyl-[4,4′-bipyridine]-3-carboxamide]",,10 to 100
"COc1ccc(Cl)c(F)c1-c1cc(C)ncc1C(=O)Nc1nn(CC(F)(F)F)c(=O)s1 [Example 2, 4-(3-Chloro-2-fluoro-6-methoxyphenyl)-6-methyl-N-(5-oxo-4-(2,2,2-trifluoroethyl)-4,5-dihydro-1,3,4-thiadiazol-2-yl)nicotinamide]",< 10,
"COc1ccc(Cl)c(F)c1-c1cc(C)ncc1C(=O)Nc1nn(CCCO)c(=O)s1 [Example 7, 4-(3-Chloro-2-fluoro-6-methoxyphenyl)-N-(4-(3-hydroxypropyl)-5-oxo-4,5-dihydro-1,3,4-thiadiazol-2-yl)-6-methylnicotinamide]",< 10,
"COc1ccc(Cl)c(F)c1-c1cc(C)ncc1C(=O)Nc1nn(CC2CC(O)C2)c(=O)s1 (stereo not shown) [Example 17, 4-(3-Chloro-2-fluoro-6-methoxyphenyl)-N-(4-((3-hydroxycyclobutyl)methyl)-5-oxo-4,5-dihydro-1,3,4-thiadiazol-2-yl)-6-methylnicotinamide]",< 10,
"CCC(O)Cn1nc(NC(=O)c2cnc(C)cc2-c2c(OC)ccc(Cl)c2F)sc1=O (stereo not shown) [Example 21, 4-(3-Chloro-2-fluoro-6-methoxyphenyl)-N-(4-(2-hydroxybutyl)-5-oxo-4,5-dihydro-1,3,4-thiadiazol-2-yl)-6-methylnicotinamide]",< 10,
"COc1ccccc1-c1cc(C)ncc1C(=O)Nc1nn(CCCCO)c(=O)s1 [Example 24, N-(4-(4-Hydroxybutyl)-5-oxo-4,5-dihydro-1,3,4-thiadiazol-2-yl)-4-(2-methoxyphenyl)-6-methylnicotinamide]",,10 to 100
"COCCn1nc(NC(=O)c2cnc(C)cc2-c2c(OC)ccc(Cl)c2F)sc1=O [Example 1, 4-(3-Chloro-2-fluoro-6-methoxyphenyl)-N-(4-(2-methoxyethyl)-5-oxo-4,5-dihydro-1,3,4-thiadiazol-2-yl)-6-methylnicotinamide]",< 10,
"COc1ccc(Cl)c(F)c1-c1cc(C)ncc1C(=O)Nc1nn(CC(=O)N2CC[C@@H](N(C)C)C2)c(=O)s1 [Example 9, 4-(3-Chloro-2-fluoro-6-methoxyphenyl)-N-(4-(2-((R)-3-(dimethylamino)pyrrolidin-1-yl)-2-oxoethyl)-5-oxo-4,5-dihydro-1,3,4-thiadiazol-2-yl)-6-methylnicotinamide]",,10 to 100
"COc1ccc(Cl)c(F)c1-c1cc(C)ncc1C(=O)Nc1nn(CCn2cccn2)c(=O)s1 [Example 18, N-(4-(2-(1H-pyrazol-1-yl)ethyl)-5-oxo-4,5-dihydro-1,3,4-thiadiazol-2-yl)-4-(3-chloro-2-fluoro-6-methoxyphenyl)-6-methylnicotinamide]",< 10,

# Next, values leading:
IC50 [1] [nM],IC50 [nM],Structure (SMILES)
< 10,,"COc1ccc(Cl)c(F)c1-c1cc(C)ncc1C(=O)Nc1nn(CCO)c(=O)s1 [Example 6, 4-(3-Chloro-2-fluoro-6-methoxyphenyl)-N-(4-(2-hydroxyethyl)-5-oxo-4,5-dihydro-1,3,4-thiadiazol-2-yl)-6-methylnicotinamide]"
< 10,,"COc1ccc(Cl)c(F)c1-c1cc(C)ncc1C(=O)Nc1nn(CCC(C)(C)O)c(=O)s1 [Example 15, 4-(3-Chloro-2-fluoro-6-methoxyphenyl)-N-(4-(3-hydroxy-3-methylbutyl)-5-oxo-4,5-dihydro-1,3,4-thiadiazol-2-yl)-6-methylnicotinamide]"
< 10,,"COc1ccc(C(F)(F)F)c(F)c1-c1cc(C)ncc1C(=O)Nc1nn(CCCO)c(=O)s1 [Example 13, 4-(2-Fluoro-6-methoxy-3-(trifluoromethyl)phenyl)-N-(4-(3-hydroxypropyl)-5-oxo-4,5-dihydro-1,3,4-thiadiazol-2-yl)-6-methylnicotinamide]"
< 10,,"COc1ccc(Cl)c(F)c1-c1cc(C)ncc1C(=O)Nc1nn(CC(=O)O)c(=O)s1 [Example 8, 2-(5-(4-(3-Chloro-2-fluoro-6-methoxyphenyl)-6-methylnicotinamido)-2-oxo-1,3,4-thiadiazol-3(2H)-yl)acetic acid]"
< 10,,"COc1ccc(Cl)cc1-c1cc(C)ncc1C(=O)Nc1nn(CCCCO)c(=O)s1 [Example 25, 4-(5-Chloro-2-methoxyphenyl)-N-(4-(4-hydroxybutyl)-5-oxo-4,5-dihydro-1,3,4-thiadiazol-2-yl)-6-methylnicotinamide]"
< 10,,"COc1ccc(Cl)c(F)c1-c1cc(C)ncc1C(=O)Nc1nn(CCC(C)O)c(=O)s1 (stereo not shown) [Example 16, 4-(3-Chloro-2-fluoro-6-methoxyphenyl)-N-(4-(3-hydroxybutyl)-5-oxo-4,5-dihydro-1,3,4-thiadiazol-2-yl)-6-methylnicotinamide]"
< 10,,"COc1ccc(Cl)c(F)c1-c1cc(C)ncc1C(=O)Nc1nn(CCCCO)c(=O)s1 [Example 14, 4-(3-Chloro-2-fluoro-6-methoxyphenyl)-N-(4-(4-hydroxybutyl)-5-oxo-4,5-dihydro-1,3,4-thiadiazol-2-yl)-6-methylnicotinamide]"
< 10,,"CCn1nc(NC(=O)c2cnc(C)cc2-c2c(OC)ccc(Cl)c2F)sc1=O [Example 3, 4-(3-Chloro-2-fluoro-6-methoxyphenyl)-N-(4-ethyl-5-oxo-4,5-dihydro-1,3,4-thiadiazol-2-yl)-6-methylnicotinamide]"
< 10,,"COc1ccc(Cl)c(F)c1-c1cc(C)ncc1C(=O)Nc1nn(CC(C)O)c(=O)s1 (stereo not shown) [Example 20, 4-(3-Chloro-2-fluoro-6-methoxyphenyl)-N-(4-(2-hydroxypropyl)-5-oxo-4,5-dihydro-1,3,4-thiadiazol-2-yl)-6-methylnicotinamide]"
< 10,,"COCCCn1nc(NC(=O)c2cnc(C)cc2-c2c(OC)ccc(Cl)c2F)sc1=O [Example 4, 4-(3-Chloro-2-fluoro-6-methoxyphenyl)-N-(4-(3-methoxypropyl)-5-oxo-4,5-dihydro-1,3,4-thiadiazol-2-yl)-6-methylnicotinamide]"
< 10,,"COc1ccc(C)c(F)c1-c1cc(C)ncc1C(=O)Nc1nn(CCCCO)c(=O)s1 [Example 28, 4-(2-Fluoro-6-methoxy-3-methylphenyl)-N-(4-(4-hydroxybutyl)-5-oxo-4,5-dihydro-1,3,4-thiadiazol-2-yl)-6-methylnicotinamide]"
< 10,,"COc1ccc(Cl)c(F)c1-c1cc(-c2ccn(C)n2)ncc1C(=O)Nc1nn(CCCCO)c(=O)s1 [Example 30, 4-(3-Chloro-2-fluoro-6-methoxyphenyl)-N-(4-(4-hydroxybutyl)-5-oxo-4,5-dihydro-1,3,4-thiadiazol-2-yl)-6-(1-methyl-1H-pyrazol-3-yl)nicotinamide]"
